# Measurements taken from US12129237B2, “Substituted diaminocarboxamide and diaminocarbonitrile pyrimidines, compositions thereof, and methods of treatment therewith” (SIGNAL PHARMACEUTICALS, LLC, priority 2011, dated 2024).
# Molecular target: T1, JNK1 (Homo sapiens, UniProt P45983)
# T1 construct: purchased Carna Biosciences
# Experiment: JNK1 biochemical assays (one or more of: time resolved fluorescence, Z'-LYTE Cascade, radioactive)
# Settings: Table 2; JNK1 IC50 activity level; read-out: Act. Level
# Method: JNK1 Assay. A 384-well time resolved fluorescence assay was used to monitor JNK1 activity. The JNK1 assay was run in the following assay buffer: 50 mM HEPES, 10 mM MgCl2, 1 mM EGTA, 2 mM DTT, and 0.01% Tween 20. To initiate the reaction 100 nM of ULight™-labeled 4EBP1 peptide (Perkin-Elmer) and 5 μM of ATP were mixed with 500 pM of JNK1 (Carna Biosciences), for a total assay volume of 20 μL in each well. The assay was incubated at room temperature for 1 h and terminated using a mixture of 30 mM EDTA and 4 nM Eu-anti-4EBP1, by adding 20 μL of stop solution to each well. Plates were read on a Perkin-Elmer Envision Reader.
# JNK1 Assay. The JNK1 Z′-LYTE® Cascade kinase assay was run in the following buffer: 50 mM HEPES at pH 7.5, 0.01% BRIJ-35, 10 mM MgCl2, 1 mM EGTA, and 1 mM DTT. […] The assay was incubated at room temperature for 1 h. […] The data was then read on a fluorescence plate reader and analyzed.
# JNK1 assay. The radioactive JNK kinase assay was carried out in a 96-well plate format at a final volume of 100 μL. […] JNK1 was diluted in the following dilution buffer (20 mM HEPES pH 7.6, 0.1 mM EDTA, 2.5 mM MgCl2, 0.004% (w/v) Triton X100, 2 μg/ml Leupeptin, 20 mM B-glycerol phosphate, 0.1 mM Na3VO4 dithiothreitol) and then pre-mixed with cJun diluted in the substrate solution buffer (20 mM HEPES pH 7.6, 50 mM NaCl, 0.1 mM EDTA, 2.5 mM MgCl2, 0.05% (w/v) Triton X100). […] The enzyme, substrate and inhibitor mixture was allowed to equilibrate at room temperature for 15 minutes. The reaction was started by the addition of 10 μL of 10×ATP in kinase buffer (130 mM MgCl2, 6 mM dithiothreitol, 150 mM para-nitrophenyl phosphate, 100 μCi/ml γ-[^33P]-ATP). Reactions were allowed to proceed for 60 minutes before precipitation of protein via trichloroacetic acid (7.2% TCA final). […] The precipitate was washed with Phosphate Buffered Saline and the amount of phosphate incorporated into cJun was quantified by scintillation counting using a Packard Topcount-NXT. All assays were conducted under conditions where phosphate incorporation was linear with respect to time and enzyme concentration.
# T1 sequence (P45983 whole entry): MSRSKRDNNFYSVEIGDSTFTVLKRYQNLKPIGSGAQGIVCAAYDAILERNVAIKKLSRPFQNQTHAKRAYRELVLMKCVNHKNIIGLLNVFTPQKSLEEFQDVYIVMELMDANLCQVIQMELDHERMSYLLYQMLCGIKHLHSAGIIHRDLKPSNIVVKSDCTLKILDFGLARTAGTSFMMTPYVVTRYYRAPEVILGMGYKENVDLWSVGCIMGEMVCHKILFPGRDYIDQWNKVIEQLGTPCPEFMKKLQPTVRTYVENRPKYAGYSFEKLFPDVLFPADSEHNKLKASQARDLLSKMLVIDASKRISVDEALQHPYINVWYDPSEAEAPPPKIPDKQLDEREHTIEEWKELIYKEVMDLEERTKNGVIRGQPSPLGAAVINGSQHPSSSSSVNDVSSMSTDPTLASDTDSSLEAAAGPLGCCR
row,IC50,Compound
1,< 200 nM,"CCOc1ccc(Nc2ncc(C(N)=O)c(N[C@H]3CCC[C@@H]3O)n2)cc1 [Example B-1, 2-(4-ethoxyphenylamino)-4-((1S,2S)-2-hydroxycyclopentylamino)pyrimidine-5-carboxamide]"
2,< 200 nM,"NC(=O)c1cnc(NC2CCOCC2)nc1Nc1ccc2ncccc2c1 [Example B-2, 4-(quinolin-6-ylamino)-2-(tetrahydro-2H-pyran-4-ylamino)pyrimidine-5-carboxamide]"
3,< 200 nM,"NC(=O)c1cnc(NC2CCOCC2)nc1Nc1ccc2cn[nH]c2c1 [Example B-3, 4-(1H-indazol-6-ylamino)-2-(tetrahydro-2H-pyran-4-ylamino)pyrimidine-5-carboxamide]"
4,< 200 nM,"CS(=O)(=O)N[C@H]1CC[C@H](Nc2ncc(C(N)=O)c(Nc3ccccc3)n2)CC1 [Example B-5, 2-((1r,4r)-4-(methylsulfonamido)cyclohexylamino)-4-(phenylamino)pyrimidine-5-carboxamide]"
5,< 200 nM,"CC(=O)N[C@H]1CC[C@H](Nc2ncc(C(N)=O)c(Nc3ccccc3)n2)CC1 [Example B-6, 2-((1r,4r)-4-acetamidocyclohexylamino)-4-(phenylamino)pyrimidine-5-carboxamide]"
6,< 200 nM,"NC(=O)c1cnc(N[C@H]2CC[C@H](N)CC2)nc1Nc1ccccc1 [Example B-7, 2-((1r,4r)-4-aminocyclohexylamino)-4-(phenylamino)pyrimidine-5-carboxamide]"
7,< 200 nM,"CNC(=O)[C@H]1CC[C@H](Nc2ncc(C(N)=O)c(Nc3ccccc3)n2)CC1 [Example B-8, 2-((1r,4r)-4-(methylcarbamoyl)cyclohexylamino)-4-(phenylamino)pyrimidine-5-carboxamide]"
8,1000 to 10000 nM,"NC(=O)c1cnc(NC2CCNCC2)nc1Nc1ccccc1 [Example B-9, 4-(phenylamino)-2-(piperidin-4-ylamino)pyrimidine-5-carboxamide]"
9,1000 to 10000 nM,"CC(=O)N1CCC(Nc2ncc(C(N)=O)c(Nc3ccccc3)n2)CC1 [Example B-10, 2-(1-acetylpiperidin-4-ylamino)-4-(phenylamino)pyrimidine-5-carboxamide]"
10,< 200 nM,"NC(=O)c1cnc(NC2CCOCC2)nc1Nc1ccccc1 [Example B-11, 4-(phenylamino)-2-(tetrahydro-2H-pyran-4-ylamino)pyrimidine-5-carboxamide]"
11,< 200 nM,"CC(C)(C)Nc1ncc(C(N)=O)c(Nc2ccccc2)n1 [Example B-12, 2-(tert-butylamino)-4-(phenylamino)pyrimidine-5-carboxamide]"
12,< 200 nM,"CCN(CC)c1ccc(Nc2ncc(C(N)=O)c(Nc3ccccc3)n2)cc1 [Example B-13, 2-(4-(diethylamino)phenylamino)-4-(phenylamino)pyrimidine-5-carboxamide]"
13,< 200 nM,"COc1ccccc1Nc1ncc(C(N)=O)c(Nc2ccccc2)n1 [Example B-15, 2-(2-methoxyphenylamino)-4-(phenylamino)pyrimidine-5-carboxamide]"
14,< 200 nM,"COc1ccc(Nc2ncc(C(N)=O)c(Nc3ccccc3)n2)cn1 [Example B-16, 2-(6-methoxypyridin-3-ylamino)-4-(phenylamino)pyrimidine-5-carboxamide]"
15,< 200 nM,"COc1ccc(Nc2ncc(C(N)=O)c(Nc3ccccc3)n2)c(C)c1 [Example B-18, 2-(4-methoxy-2-methylphenylamino)-4-(phenylamino)pyrimidine-5-carboxamide]"

# Same assay, conditions: tested in one or more of the JNK1 biochemical assays; read-out: Act. Level (JNK1 biochemical assay IC50 activity level)
row,IC50,Compound
1,< 200 nM,"NC(=O)c1cnc(N[C@H]2CC[C@H](O)CC2)nc1NC1CCC1 [Example A-176, 4-(cyclobutylamino)-2-((1r,4r)-4-hydroxycyclohexylamino)pyrimidine-5-carboxamide]"
2,< 200 nM,"C[C@]1(O)CCC[C@@H](Nc2nc(N[C@H]3CC[C@H](O)CC3)ncc2C(N)=O)C1 [Example A-177, 4-((1R,3S)-3-hydroxy-3-methylcyclohexylamino)-2-((1r,4R)-4-hydroxycyclohexylamino)pyrimidine-5-carboxamide]"
3,< 200 nM,"C[C@@H]1CC[C@@H](Nc2nc(N[C@H]3CC[C@H](OCC(F)(F)F)CC3)ncc2C(N)=O)C[C@H]1O [Example A-178, 4-((1R,3R,4R)-3-hydroxy-4-methylcyclohexylamino)-2-((1r,4R)-4-(2,2,2-trifluoroethoxy)cyclohexylamino)pyrimidine-5-carboxamide]"
4,< 200 nM,"C[C@@H]1CC[C@@H](Nc2nc(N[C@H]3CC[C@H](O)CC3)ncc2C(N)=O)C[C@H]1O [Example A-179, 4-((1R,3R,4R)-3-hydroxy-4-methylcyclohexylamino)-2-((1r,4R)-4-hydroxycyclohexylamino)pyrimidine-5-carboxamide]"
5,< 200 nM,"CC1(Nc2ncc(C(N)=O)c(N[C@@H]3CCCC[C@H](O)C3)n2)CCOCC1 [Example A-181, 4-((1R,3S)-3-hydroxycycloheptylamino)-2-(4-methyltetrahydro-2H-pyran-4-ylamino)pyrimidine-5-carboxamide]"
6,< 200 nM,"CC(C)(C)Nc1ncc(C(N)=O)c(N[C@@H]2CCCC[C@H](O)C2)n1 [Example A-182, 2-(tert-butylamino)-4-((1R,3S)-3-hydroxycycloheptylamino)pyrimidine-5-carboxamide]"
7,< 200 nM,"CO[C@H]1CC[C@H](Nc2ncc(C(N)=O)c(N[C@@H]3CCCC[C@](C)(O)C3)n2)CC1 [Example A-183, 4-((1R,3S)-3-hydroxy-3-methylcycloheptylamino)-2-((1r,4R)-4-methoxycyclohexylamino)pyrimidine-5-carboxamide]"
8,200 to 800 nM,"CO[C@H]1CC[C@H](Nc2ncc(C(N)=O)c(N[C@H]3CCCC[C@](C)(O)C3)n2)CC1 [Example A-184, 4-((1S,3S)-3-hydroxy-3-methylcycloheptylamino)-2-((1r,4S)-4-methoxycyclohexylamino)pyrimidine-5-carboxamide]"
9,< 200 nM,"CO[C@H]1CC[C@H](Nc2ncc(C(N)=O)c(N[C@H]3CCCC[C@@](C)(O)C3)n2)CC1 [Example A-185, 4-((1S,3R)-3-hydroxy-3-methylcycloheptylamino)-2-((1r,4S)-4-methoxycyclohexylamino)pyrimidine-5-carboxamide]"
10,< 200 nM,"CO[C@H]1CC[C@H](Nc2ncc(C(N)=O)c(N[C@@H]3CCCC[C@@](C)(O)C3)n2)CC1 [Example A-186, 4-((1R,3R)-3-hydroxy-3-methylcycloheptylamino)-2-((1r,4R)-4-methoxycyclohexylamino)pyrimidine-5-carboxamide]"
11,< 200 nM,"C[C@]1(O)CCC[C@@H](Nc2nc(NC3CCC(F)(F)CC3)ncc2C(N)=O)C1 [Example A-187, 2-(4,4-difluorocyclohexylamino)-4-((1R,3S)-3-hydroxy-3-methylcyclohexylamino)pyrimidine-5-carboxamide]"
12,< 200 nM,"NC(=O)c1cnc(N[C@H]2CC[C@H](OCC(F)(F)F)CC2)nc1N[C@@H]1CCCOC1 [Example A-188, 4-((R)-tetrahydro-2H-pyran-3-ylamino)-2-((1r,4R)-4-(2,2,2-trifluoroethoxy)cyclohexylamino)pyrimidine-5-carboxamide]"
13,< 200 nM,"CC[C@@H](C)Nc1nc(N[C@H]2CC[C@H](O)CC2)ncc1C(N)=O [Example A-189, 4-(sec-butylamino)-2-((1r,4R)-4-hydroxycyclohexylamino)pyrimidine-5-carboxamide]"
14,< 200 nM,"CO[C@H]1CC[C@H](Nc2ncc(C(N)=O)c(NC3CCCC3)n2)CC1 [Example A-190, 4-(cyclopentylamino)-2-((1r,4r)-4-methoxycyclohexylamino)pyrimidine-5-carboxamide]"
15,< 200 nM,"CC(C)Nc1nc(N[C@H]2CC[C@H](OC(F)F)CC2)ncc1C(N)=O [Example A-191, 2-((1r,4r)-4-(difluoromethoxy)cyclohexylamino)-4-(isopropylamino)pyrimidine-5-carboxamide]"
16,< 200 nM,"NC(=O)c1cnc(NC2CCC(F)(F)CC2)nc1N[C@@H]1CCCC[C@H](O)C1 [Example A-192, 2-(4,4-difluorocyclohexylamino)-4-((1R,3S)-3-hydroxycycloheptylamino)pyrimidine-5-carboxamide]"
17,< 200 nM,"NC(=O)c1cnc(N[C@H]2CC[C@H](O)CC2)nc1N[C@@H]1CCCOC1 [Example A-193, 2-((1r,4R)-4-hydroxycyclohexylamino)-4-((R)-tetrahydro-2H-pyran-3-ylamino)pyrimidine-5-carboxamide]"
18,< 200 nM,"CN(C)C(=O)[C@H]1CC[C@H](Nc2ncc(C(N)=O)c(N[C@@H]3CCCOC3)n2)CC1 [Example A-194, 2-((1r,4R)-4-(dimethylcarbamoyl)cyclohexylamino)-4-((R)-tetrahydro-2H-pyran-3-ylamino)pyrimidine-5-carboxamide]"
19,< 200 nM,"CC[C@H](C)Nc1nc(N[C@H]2CC[C@H](O)CC2)ncc1C(N)=O [Example A-195, 4-(sec-butylamino)-2-((1r,4S)-4-hydroxycyclohexylamino)pyrimidine-5-carboxamide]"
20,< 200 nM,"CCO[C@H]1CC[C@H](Nc2ncc(C(N)=O)c(NC3CCC3)n2)CC1 [Example A-197, 4-(cyclobutylamino)-2-((1r,4r)-4-ethoxycyclohexylamino)pyrimidine-5-carboxamide]"
21,< 200 nM,"C[C@@H]1CC[C@@H](Nc2nc(NC3CCC(F)(F)CC3)ncc2C(N)=O)C[C@H]1O [Example A-198, 2-(4,4-difluorocyclohexylamino)-4-((1R,3R,4R)-3-hydroxy-4-methylcyclohexylamino)pyrimidine-5-carboxamide]"
22,< 200 nM,"CNC(=O)[C@H]1CC[C@H](Nc2ncc(C(N)=O)c(NC(C)C)n2)CC1 [Example A-199, 4-(isopropylamino)-2-((1r,4r)-4-(methylcarbamoyl)cyclohexylamino)pyrimidine-5-carboxamide]"
23,< 200 nM,"CO[C@H]1CCC[C@H](Nc2ncc(C(N)=O)c(N[C@@H]3CCC[C@H](O)C3)n2)CC1 [Example A-200, 4-((1R,3S)-3-hydroxycyclohexylamino)-2-((1S,4S)-4-methoxycycloheptylamino)pyrimidine-5-carboxamide]"
24,< 200 nM,"CO[C@@H]1CCC[C@@H](Nc2ncc(C(N)=O)c(N[C@@H]3CCC[C@H](O)C3)n2)CC1 [Example A-201, 4-((1R,3S)-3-hydroxycyclohexylamino)-2-((1R,4R)-4-methoxycycloheptylamino)pyrimidine-5-carboxamide]"
